Source: patent US6682892B2, “Method for treating herpes viruses” (priority 2000, dated 2004)

Assays:
[1] = target: T1, HCMV V823A/V824L polymerase (Human cytomegalovirus, UniProt P08546, V823A/V824L); test: In vitro polymerase assay, mutant HCMV polymerase V823A/V824L; type: biochemical
T1 construct: made in house
T1 sequence (P08546 1-1242 V823A/V824L): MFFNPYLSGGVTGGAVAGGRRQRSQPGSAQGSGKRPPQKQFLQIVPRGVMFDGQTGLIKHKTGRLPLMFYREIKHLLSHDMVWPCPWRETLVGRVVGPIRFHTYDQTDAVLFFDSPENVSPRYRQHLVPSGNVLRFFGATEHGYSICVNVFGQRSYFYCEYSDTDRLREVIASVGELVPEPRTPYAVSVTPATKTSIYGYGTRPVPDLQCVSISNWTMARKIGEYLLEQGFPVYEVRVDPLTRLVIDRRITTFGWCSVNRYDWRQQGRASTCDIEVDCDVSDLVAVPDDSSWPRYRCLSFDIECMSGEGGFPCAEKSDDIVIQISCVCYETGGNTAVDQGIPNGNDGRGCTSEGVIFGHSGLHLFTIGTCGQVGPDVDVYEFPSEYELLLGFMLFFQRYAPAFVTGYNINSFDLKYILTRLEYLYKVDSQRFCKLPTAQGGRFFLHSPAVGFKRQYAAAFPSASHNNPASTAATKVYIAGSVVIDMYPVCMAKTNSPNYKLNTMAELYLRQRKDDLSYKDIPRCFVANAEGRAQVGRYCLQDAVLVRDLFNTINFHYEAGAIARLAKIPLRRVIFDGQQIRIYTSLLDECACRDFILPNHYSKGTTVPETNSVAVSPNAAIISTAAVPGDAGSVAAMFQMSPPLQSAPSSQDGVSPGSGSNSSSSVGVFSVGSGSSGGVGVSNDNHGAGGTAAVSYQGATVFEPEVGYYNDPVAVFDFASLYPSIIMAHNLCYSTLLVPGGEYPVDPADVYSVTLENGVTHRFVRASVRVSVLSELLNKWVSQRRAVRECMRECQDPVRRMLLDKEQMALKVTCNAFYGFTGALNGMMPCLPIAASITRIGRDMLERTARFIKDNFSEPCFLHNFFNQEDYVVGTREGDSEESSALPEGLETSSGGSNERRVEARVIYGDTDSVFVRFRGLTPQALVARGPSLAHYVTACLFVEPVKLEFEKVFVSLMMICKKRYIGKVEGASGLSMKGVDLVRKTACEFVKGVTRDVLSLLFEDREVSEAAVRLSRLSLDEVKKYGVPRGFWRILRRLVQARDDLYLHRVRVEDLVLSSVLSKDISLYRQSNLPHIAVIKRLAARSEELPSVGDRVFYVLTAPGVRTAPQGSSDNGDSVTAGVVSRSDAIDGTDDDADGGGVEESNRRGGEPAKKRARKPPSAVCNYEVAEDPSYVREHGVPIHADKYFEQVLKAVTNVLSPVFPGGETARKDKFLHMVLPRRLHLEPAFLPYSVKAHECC
Experimental: In order to select for a 4-oxo-DHQ HCMV resistant mutant, virus (strain AD169) is serially passaged in the presence of 20 uM a 4-oxo-DHQ. […] In order to determine if both valines need to be changed in order to confer resistance to the 4-oxo-DHQ's, in vitro polymerase assays are done using mutant HCMV polymerases containing either V823A or V823A plus V824L (Table 3).

[2] = tested on: HSV-1 KOS-M1 (V823A); test: Plaque reduction assay, 4-oxo-DHQ resistant HSV-1 KOS-M1; type: cell-based; conditions: Table 2, mutant V823A; read-out: IC50 (uM), HSV-1 Kos-M1
Experimental: (§1) Antiviral activity of compounds against herpesviruses such as HSV-1, HSV-2, or HCMV can be measured using plaque reduction assays. 0.1 ml of media containing approximately 50 PFU of virus is added to each well of a 24-well cell culture dish containing a confluent monolayer of cells (Vero cells for HSV-1 and HSV-2, HFF cells for HCMV). Compounds are dissolved in 100% DMSO and diluted in 100% DMSO as 200× stocks of the desired final drug concentration. Typically 5-6 two-fold dilutions are prepared for each compound. Dilutions of compounds are then added to media containing 0.8% CMC resulting in a final 1× drug concentration. After the virus-infected cells have incubated for 1 h at 37° C., the virus innoculum is removed and 1 ml of media containing 0.8% CMC and the various concentrations of compound is added to each well of the dish. The dish is incubated at 37° C. for approximately 2-3 days (HSV-1 and HSV-2) or 6-9 days (HCMV) to allow sufficient growth of virus to form plaques in the cell monolayer. Plaques can be observed and counted microscopically or by staining the cells with 0.1% crystal violet in 20% ethanol. […] Antiviral activity of a compound is expressed as the concentration of compound predicted to reduce the number of plaques in a well by 50% (IC50). The IC50 values are calculated by plotting the per cent inhibition vs. concentration of compound using EXCEL software for linear regression.
Vero cells are plated out at a density of 3.5×10^5 cells per well in a six well tissue culture plate. Cells are infected with HSV-1 KOS at a multiplicity of infection (moi) of 0.1 pfu/cell and 1 h post infection the cells are overlayed with 3 ml media containing 20 uM of a 4-oxo-DHQ. Cultures are incubated for 20 h at 37° C., freeze/thawed to release cell-associated virus, and 0.1 ml of culture is used to infect a new monolayer of Vero cells (one passage). Serial passage is repeated seven times in the presence of 20 uM drug. Virus isolates are then plaque purified three times prior to preparation of stocks. 4-oxo-DHQ resistant HSV-1 and HSV-2 may also be selected by the marker transfer method described below using wild-type HSV DNA and the corresponding mutant HSV polymerase gene.
(§2) A panel of viruses consisting of four strains of HSV-1 (KOS, F, DJL, Patton) and three strains of HSV-2 (MS, 35D, 186) are tested in a plaque reduction assay against four different 4-oxo-DHQ compounds (#1, 2, 4, 5 as shown in FIG. 1), and one 4-oxo-DHTP compound (#3 as shown in FIG. 1) and against Acyclovir. The six drugs inhibited replication of the seven virus strains with IC50 values ranging from 2-10 μM (Table 1). In order to select for 4-oxo-DHQ resistant mutants, HSV-1 strains KOS, F, and DJL along with HSV-2 strains 186 and MS are serially passaged in the presence of 20 uM compound 1. Following the seventh passage, 4-oxo-DHQ resistant virus from each strain are plaque purified three times and high-titer stocks are made.

[3] = tested on: HSV-1 KOS; test: Plaque reduction assay, HSV-1 KOS; type: cell-based; conditions: Table 1, plaque reduction, Vero cells; read-out: IC50 (uM), HSV-1 KOS
Experimental: as §1, §2

**Q.** What does the source list for Cn1cc(C(=O)NCc2ccc(Cl)cc2)c(=O)c2cc(/C=C\CO)cc(F)c21 [Compound 1]?
**A.** IC50 ([1]; Table 3): 42.9 µM; increase in resistance, HCMV V823A/V824L polymerase ([1]; relative to wild type): *Mutation of the amino acid from valine to alanine and amino acid 824 from valine to leucine results in an 9-fold increase in resistance, relative to wild type.; IC50 [2]: > 20 µM; IC50 [3]: 2 µM
